Measured values taken from ChEMBL document CHEMBL1138834, “Zn2+-chelating motif-tethered short-chain fatty acids as a novel class of histone deacetylase inhibitors” (J Med Chem, 2004).

How the values were obtained:
Histone deacetylase [1] = test: Inhibition of histone deacetylase (HDAC) activity in DU-145 nuclear extracts; assay type: protein assay, Homo sapiens
DU-145 = test: Effect of HTPB on DU-145 Cell viability; high degree of sensitivity, Range 0.5-1; assay type: functional, cell-based; settings: Homo sapiens
Histone deacetylase [2] = test: Inhibitory concentration against histone deacetylase (HDAC); Value ranges from 5-80 uM; assay type: protein assay
Histone deacetylase [3] = test: Inhibitory concentration against histone deacetylase (HDAC); Value ranges from 5-8 uM; assay type: protein assay
Histone deacetylase [4] = test: Inhibitory concentration against histone deacetylase (HDAC); Value ranges from 10-20 uM; assay type: protein assay

| Compound | IC50 (Histone deacetylase [1]) [µM] | also measured |
| --- | --- | --- |
| CCCC(CCC)C(=O)Nc1ccc(CCC(=O)NO)cc1 | 5 |  |
| CCCC(CCC)C(=O)Nc1ccc(CC(=O)NO)cc1 |  | IC50 (Histone deacetylase [2]): < 80 µM |
| CCCC(CCC)C(=O)NCc1ccc(C(=O)Nc2ccccc2N)cc1 |  | IC50 (Histone deacetylase [3]): < 8 µM |
| CCCC(CCC)C(=O)Nc1ccc(CC(=O)Nc2ccccc2N)cc1 | 80 |  |
| O=C(Cc1ccccc1)Nc1ccc(C(=O)NO)cc1 | 0.11 |  |
| CCCC(=O)Nc1ccc(C(=O)NO)cc1 | 1.5 |  |
| CCCC(CCC)C(=O)NCc1ccc(C(=O)NO)cc1 |  | IC50 (Histone deacetylase [3]): < 8 µM |
| CCCC(CCC)C(=O)Nc1ccc(C(=O)Nc2ccccc2N)cc1 |  | IC50 (Histone deacetylase [4]): < 20 µM |
| CCCC(CCC)C(=O)Nc1ccc(CCC(=O)Nc2ccccc2N)cc1 |  | IC50 (Histone deacetylase [2]): < 80 µM |
| CCCC(CCC)C(=O)Nc1ccc(C(=O)NO)cc1 |  | IC50 (Histone deacetylase [3]): < 8 µM |
| CCCC(CCC)C(=O)Nc1ccc(/C=C/C(=O)NO)cc1 |  | IC50 (Histone deacetylase [4]): < 20 µM |
| CCCC(=O)Nc1ccc(CCC(=O)NO)cc1 | 1.6 |  |
| CCCC(CCC)C(=O)Nc1ccc(/C=C/C(=O)Nc2ccccc2N)cc1 |  | IC50 (Histone deacetylase [4]): < 20 µM |
| CCCC(=O)NCc1ccc(C(=O)NO)cc1 | 3.6 |  |

Second part, led by results:

| IC50 (Histone deacetylase [1]) [µM] | Compound | also measured |
| --- | --- | --- |
| 0.044 | O=C(CCCc1ccccc1)Nc1ccc(C(=O)NO)cc1 | IC50 (DU-145): 1 µM |
| 5.2 | Nc1ccccc1NC(=O)c1ccc(CNC(=O)Cc2ccccc2)cc1 |  |
| 1.2 | O=C(CCCc1ccccc1)NCc1ccc(C(=O)NO)cc1 |  |
| 0.53 | O=C(CCc1ccc(NC(=O)CCCc2ccccc2)cc1)NO |  |
| 0.67 | O=C(CCc1ccc(NC(=O)Cc2ccccc2)cc1)NO |  |
| 2.5 | O=C(Cc1ccccc1)NCc1ccc(C(=O)NO)cc1 |  |
| 6 | CCCC(=O)NCc1ccc(C(=O)Nc2ccccc2N)cc1 |  |
| 4.3 | Nc1ccccc1NC(=O)c1ccc(CNC(=O)CCCc2ccccc2)cc1 |  |
